Source: patent US10653658B2, “Biofilm inhibiting compositions enhancing weight gain in livestock” (Akeso Biomedical, Inc., priority 2015, dated 2020)
Marks after values point to notes of the source that are not given here.

What was measured:
[1] = tested on: Campylobacter jejuni NCTC 11168; experiment: Biofilm formation on plastic coated UV beads (Example 6); details: Fe-Tart and Fe-Cit at 50, 100, and 300 μM; FeQ (QPLEX) at 300
Salmonella = Salmonella cfu/g of caeca at day 42 (Example 10); format: in vivo; details: in feed
Experimental: (§1) A study was performed to evaluate growth promotion and reduction of Campylobacter carriage using FeTyr in Ross 308 male broilers with 7 treatment groups. Each treatment group comprised eight replicates of 10 birds per pen (80 birds/treatment group), with 2 control groups and […]. All the test groups and both of the control groups were exposed at day 20 of the trial to dirty litter, which tested positive for Campylobacter. This method was used to provide a more natural method to Campylobacter challenge the birds. Thus there were two positive controls where each treatment group was challenged with Campylobacter, and five treatment groups that were all challenged with Campylobacter. The total number of birds used in the 7 treatment groups was 560.
(§2) At day 20, litter, which was naturally Campylobacter-contaminated, was tested to confirm the presence of Campylobacter, and then added (approximately 2 kg/pen) to the litter in all pens. At day 42, caecal samples were taken and tested for Campylobacter, E. coli and Salmonella enumeration.

[2] = Dose ranging study of FeTyr (TYPLEX) in feed, zootechnical performance of broilers, dirty litter challenge at day 20 (Example 10); format: in vivo, Ross 308 male broilers; details: for AFI / AWG / MFCR / AFI/bird/period / AWG/bird/period: 0.22 g Q-PLEX/kg feed
Experimental: as §1
Treatment group 1 was a positive control where birds just received the commercial feed, and were challenged with dirty litter containing Campylobacter at day 20. Treatment group 2 received 0.01 g/kg of TYPLEX (FeTyr) in their feed, and were challenged with dirty litter containing Campylobacter at day 20. Treatment group 3 received 0.02 g/kg of TYPLEX (FeTyr) in their feed, and was challenged with dirty litter containing Campylobacter at day 20. Treatment group 4 received 0.05 g/kg of TYPLEX (FeTyr) in their feed, and was challenged with dirty litter containing Campylobacter at day 20. Treatment group 5 received 0.1 g/kg of TYPLEX (FeTyr) in their feed, and was challenged with dirty litter containing Campylobacter at day 20. Treatment group 6 received 0.2 g/kg of TYPLEX (FeTyr) in their feed, and was challenged with dirty litter containing Campylobacter at day 20. […] The birds were fed with a commercial three-phase feeding program using starter, grower and finisher feeds as described in Example 1. The birds were reared in floor pens to day 42, and fed starter, grower and finisher feed at day 0 to 11, 11 to 24, and 24 to 42 days, respectively. All birds were weighed individually and feed weigh backs recorded per pen at day 0, 11, 21, 24 and 42 days.
as §2
In order to minimize risk of cross-contamination, standard industry biosecurity measures were used including: disinfecting boots, changing overshoes and gloves between pens/treatments, entering Campylobacter negative pens before entering Campylobacter positive pens, and leaving adjacent pens empty. Daily health, culls, and mortality were recorded. All bird weights were recorded at 0, 11, 21, 24, 33 and 42 days. Weight gains, feed intake and feed conversion ratio (FCR) were derived for each feeding period.

E. coli = E. coli cfu/g of caeca at day 42 (Example 10); format: in vivo
Experimental: as §1, §2

With `O=C([O-])C1(O)CC(O)C(O)C(O)C1.O=C([O-])C1(O)CC(O)C(O)C(O)C1.O=C([O-])C1(O)CC(O)C(O)C(O)C1.[Fe+3]` (centres unmarked) [FeQ, Ferric Quinate] the “C. jejuni biofilm formation on plastic coated UV beads (FIG. 9)” value [1] was “inhibited C. jejuni biofilm formation”, the “Salmonella cfu/g of caeca at day 42 (FIG. 15)” value (Salmonella) was “positive effect on reducing Campylobacter infection” and the AFI ([2]; 0-25 d of age) was 1.898 kg. The AWG ([2]; 0-25 d of age) was 1.422^c kg, the MFCR ([2]; 0-25 d of age) was 1.335^a feed:gain and the AFI/bird/period ([2]; 0-35 d of age) was 3.815 kg. For the same molecule, the AWG/bird/period ([2]; 0-35 d of age) was 0.668 kg, the MFCR ([2]; 0-35 d of age) was 1.458^a feed:gain and the AFI/bird/period ([2]; 0-42 d of age) was 5.279 kg. The AWG/bird/period ([2]; 0-42 d of age) was 3.448^ab kg, the MFCR ([2]; 0-42 d of age) was 1.547^a feed:gain and the AFI ([2]; 35 to 42 d of age) was 1.464 kg. The AWG ([2]; 35 to 42 d of age) was 0.790 kg, the MFCR ([2]; 35 to 42 d of age) was 1.864 feed:gain and the “ABW (average body weight/pen) 1 d” value ([2]; T7 0.22 g Q-PLEX/kg feed) was 0.040 kg. For the same molecule, the “ABW (average body weight/pen) 11 d” value ([2]; T7 0.22 g Q-PLEX/kg feed) was 0.350^b kg, the “ABW (average body weight/pen) 20 d” value ([2]; T7 0.22 g Q-PLEX/kg feed) was 0.968 kg and the “ABW (average body weight/pen) 25 d” value ([2]; T7 0.22 g Q-PLEX/kg feed) was 1.463^c kg. The “ABW (average body weight/pen) 28 d” value ([2]; T7 0.22 g Q-PLEX/kg feed) was 1.836^b kg, the “ABW (average body weight/pen) 30 d” value ([2]; T7 0.22 g Q-PLEX/kg feed) was 2.031^b kg and the “ABW (average body weight/pen) 35 d” value ([2]; T7 0.22 g Q-PLEX/kg feed) was 2.698^ab kg. For the same molecule, the “ABW (average body weight/pen) 42 d” value ([2]; T7 0.22 g Q-PLEX/kg feed) was 3.488^ab kg, the “AFI (mean feed intake/pen) 1 to 11 d” value ([2]; T7 0.22 g Q-PLEX/kg feed) was 0.357^b kg and the “AFI (mean feed intake/pen) 11 to 20 d” value ([2]; T7 0.22 g Q-PLEX/kg feed) was 0.836^ab kg. For the same molecule, the “AFI (mean feed intake/pen) 11 to 25 d” value ([2]; T7 0.22 g Q-PLEX/kg feed) was 1.541 kg, the “AFI (mean feed intake/pen) 20 to 35 d” value ([2]; T7 0.22 g Q-PLEX/kg feed) was 2.622 kg and the “AFI (mean feed intake/pen) 25-42 d” value ([2]; T7 0.22 g Q-PLEX/kg feed) was 3.381 kg. The “AFI/bird/period 20-25 d” value ([2]; T7 0.22 g Q-PLEX/kg feed) was 0.705 kg, the “AFI/bird/period 25-35 d” value ([2]; T7 0.22 g Q-PLEX/kg feed) was 1.917 kg and the “AWG (mean weight gain/pen) 1 to 11 d” value ([2]; T7 0.22 g Q-PLEX/kg feed) was 0.310^b kg. The “AWG (mean weight gain/pen) 11 to 20 d” value ([2]; T7 0.22 g Q-PLEX/kg feed) was 0.618 kg, the “AWG (mean weight gain/pen) 11 to 25 d” value ([2]; T7 0.22 g Q-PLEX/kg feed) was 1.113^b kg and the “AWG (mean weight gain/pen) 20 to 35 d” value ([2]; T7 0.22 g Q-PLEX/kg feed) was 1.730^ab kg. The “AWG (mean weight gain/pen) 25-42 d” value ([2]; T7 0.22 g Q-PLEX/kg feed) was 2.026^ab kg, the “AWG/bird/period 20-25 d” value ([2]; T7 0.22 g Q-PLEX/kg feed) was 0.495 kg and the “AWG/bird/period 25-35 d” value ([2]; T7 0.22 g Q-PLEX/kg feed) was 1.236^abc kg. The “MFCR 1 to 11 d” value ([2]; T7 0.22 g Q-PLEX/kg feed) was 1.150^x feed:gain, the “MFCR 11 to 20 d” value ([2]; T7 0.22 g Q-PLEX/kg feed) was 1.357^ab feed:gain and the “MFCR 11 to 25 d” value ([2]; T7 0.22 g Q-PLEX/kg feed) was 1.387^a feed:gain. For the same molecule, the “MFCR 20-25 d” value ([2]; T7 0.22 g Q-PLEX/kg feed) was 1.430^a feed:gain, the “MFCR 20 to 35 d” value ([2]; T7 0.22 g Q-PLEX/kg feed) was 1.554^a feed:gain and the “MFCR 25-35 d” value ([2]; T7 0.22 g Q-PLEX/kg feed) was 1.607^ab feed:gain. For the same molecule, the “MFCR 25-42 d” value ([2]; T7 0.22 g Q-PLEX/kg feed) was 1.703^ab feed:gain, the “MFCR at day 42 compared to control group (FIG. 13)” value ([2]; all treatment groups, in feed) was “improved MFCR values” and the “average body weight at day 42 compared with control group (FIG. 12)” value ([2]; all treatment groups, in feed) was “higher average body weight”. For the same molecule, the “E. coli cfu/g of caeca at day 42 (FIG. 16)” value (E. coli; in feed) was “positive effect on reducing Campylobacter infection” and the “levels of E. coli in poultry upon treatment” value (E. coli; poultry data) was “lower levels of E. coli”.
